Test results reported in US4468511A, “C-20- And C-23-Modified macrolide derivatives” (Eli Lilly and Company, priority 1983, dated 1984).
≈ marks a conversion by molar mass, not a printed value. Where two headings read alike, the source gives them in different places.

Tests used:
[1] = tested on: Streptococcus pyogenes C203; test: Protection of mice experimentally infected with S. pyogenes C203; assay type: in vivo
Method: Some of the derivatives of this invention have shown in vivo antimicrobial activity against experimentally-induced infections in laboratory animals. When two doses of test compound were administered to mice experimentally infected with S. pyogenes C203, the activity observed was measured as an ED50 value [effective dose in mg/kg to protect 50% of the test animals: see Warren Wick, et al., J. Bacteriol. 81, 233-235 (1961)].

[2] = tested on: Staphylococcus aureus X400; test: MIC, standard agar-dilution assay; assay type: cell-based
Method: (§1) The MIC's in Table II were determined by standard agar-dilution assays. The MIC's in Table III were obtained using a conventional broth-dilution microtiter test.

[3] = tested on: Haemophilus influenzae 76; test: MIC, standard agar-dilution assay; assay type: cell-based; settings: Haemophilus influenzae, 76
Method: as §1

[4] = tested on: Staphylococcus epidermidis EPI2; test: MIC, standard agar-dilution assay; assay type: cell-based; settings: agar-dilution; Staphylococcus epidermidis EPI2; read-out: MIC
Method: as §1

[5] = tested on: Haemophilus influenzae C.L.; test: MIC, standard agar-dilution assay; assay type: cell-based
Method: as §1

[6] = tested on: Pasteurella multocida; test: Pasteurella infection in one-day old chicks; assay type: in vivo; settings: subcutaneous, 30 mg/kg × 2, 1 and 4 hours post-challenge
Method: Certain of the formula 1 compounds of this invention have also shown in vivo activity against infections induced by gram-negative bacteria. Table V summarizes the results of tests in which illustrative compounds were evaluated against a Pasteurella infection in one-day old chicks. The compounds were administered parenterally after challenge of the chicks with Pasteurella multocida (0.1 ml of a 10^-4 dilution of a twenty-hour tryptose broth culture of an avian P. multocida given subcutaneously). In these tests, unless indicated otherwise, all non-medicated infected chicks died within 24 hours of Pasteurella challenge. In the tests summarized in Table V, the compounds were administered by subcutaneous injection at a dosage of 30 mg/kg, 1 and 4 hours post-challenge of the chicks with P. multocida.

[7] = tested on: Streptococcus Group D X66; test: MIC, standard agar-dilution assay; assay type: cell-based
Method: (§2) Certain of the derivatives are active against some gram-negative bacteria, such as Pasteurella species. The MIC's in Table II were determined by standard agar-dilution assays. The MIC's in Table III were obtained using a conventional broth-dilution microtiter test.

[8] = tested on: Streptococcus pyogenes 9960; test: MIC, standard agar-dilution assay; assay type: cell-based; settings: agar-dilution, Streptococcus 9960, read-out: MIC
Method: as §2

[9] = tested on: Streptococcus pneumoniae Park I; test: MIC, standard agar-dilution assay; assay type: cell-based
Method: as §2

[10] = tested on: Klebsiella pneumoniae X26; test: MIC, standard agar-dilution assay; assay type: cell-based; settings: agar-dilution; Klebsiella pneumoniae X26; read-out: MIC
Procedure, shortened: (§3)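 MICs for the two Pasteurella strains and the Mycoplasma strain were read from a broth-dilution microtiter test. The Klebsiella strain was tested on agar instead.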

[11] = tested on: Escherichia coli TEM; test: MIC, standard agar-dilution assay; assay type: cell-based; settings: agar-dilution; Escherichia coli TEM; read-out: MIC
Procedure, shortened: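 Minimum inhibitory concentrations against Escherichia coli were measured with a standard agar-dilution method. The result for each derivative is the lowest concentration that inhibits bacterial growth, given in ug/mL.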

[12] = tested on: Streptococcus pyogenes C203; test: MIC, standard agar-dilution assay; assay type: cell-based
Method: as §2

[13] = tested on: Staphylococcus aureus X1.1; test: MIC, standard agar-dilution assay; assay type: cell-based; settings: Staphylococcus aureus, X1.1
Procedure, shortened: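 Minimum inhibitory concentration against Staphylococcus aureus strain X1.1 was measured with a standard agar-dilution method. The result is reported as the MIC in ug/mL, i.e. the lowest compound concentration in agar that prevents visible growth of this organism.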

[14] = tested on: Klebsiella pneumoniae KAE; test: MIC, standard agar-dilution assay; assay type: cell-based; settings: agar-dilution; Klebsiella pneumoniae KAE; read-out: MIC
Procedure, shortened: (§4)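 Method depends on organism. Klebsiella pneumoniae was assayed on agar. Pasteurella spp. and Mycoplasma gallisepticum were assayed in broth microtiter dilution.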

[15] = tested on: Staphylococcus aureus V41; test: MIC, standard agar-dilution assay; assay type: cell-based
Method: as §2

[16] = tested on: Escherichia coli EC14; test: MIC, standard agar-dilution assay; assay type: cell-based; settings: agar-dilution; Escherichia coli EC14; read-out: MIC
Method: as §2

[17] = tested on: Staphylococcus aureus S13E; test: microbe, parasite or virus in culture; assay type: cell-based
Method: as §1

[18] = tested on: Staphylococcus epidermidis EPI1; test: microbe, parasite or virus in culture; assay type: cell-based; settings: Staphylococcus epidermidis, EPI1
Method: as §1

[19] = tested on: Mycoplasma synoviae; test: MIC, conventional broth-dilution microtiter test; assay type: cell-based; settings: Mycoplasmopsis synoviae
Procedure, shortened: as §3

[20] = tested on: Pasteurella hemolytica 22C; test: MIC, conventional broth-dilution microtiter test; assay type: cell-based; settings: broth-dilution microtiter; Pasteurella hemolytica 22C; read-out: MIC
Procedure, shortened: as §4

[21] = tested on: Mycoplasma gallisepticum; test: MIC, conventional broth-dilution microtiter test; assay type: cell-based; settings: Mycoplasmoides gallisepticum
Procedure, shortened: as §4

[22] = tested on: Pasteurella multocida 68C; test: MIC, conventional broth-dilution microtiter test; assay type: cell-based
Procedure, shortened: as §4

[23] = tested on: Pasteurella multocida 22A; test: MIC, conventional broth-dilution microtiter test; assay type: cell-based
Procedure, shortened: as §4

[24] = tested on: Pasteurella multocida 40G; test: MIC, conventional broth-dilution microtiter test; assay type: cell-based
Procedure, shortened: as §4

[25] = tested on: Pasteurella multocida 60A; test: MIC, conventional broth-dilution microtiter test; assay type: cell-based
Procedure, shortened: as §4

[26] = tested on: Pasteurella hemolytica 23C; test: MIC, conventional broth-dilution microtiter test; assay type: cell-based; settings: broth-dilution microtiter; Pasteurella hemolytica 23C; read-out: MIC
Procedure, shortened: as §4

[27] = tested on: Pasteurella hemolytica 41D; test: MIC, conventional broth-dilution microtiter test; assay type: cell-based; settings: broth-dilution microtiter; Pasteurella hemolytica 41D; read-out: MIC
Procedure, shortened: as §4

[28] = tested on: Mycoplasma gallisepticum 41313; test: MIC, conventional broth-dilution microtiter test; assay type: cell-based; settings: Mycoplasmoides gallisepticum; broth-dilution microtiter; Mycoplasma gallisepticum 41313, Resistant strain; read-out: MIC
Procedure, shortened: as §4

[29] = tested on: Mycoplasma hyorhinis; test: MIC, conventional broth-dilution microtiter test; assay type: cell-based; settings: broth-dilution microtiter; Mycoplasma hyorhinis; read-out: MIC
Procedure, shortened: as §3

[30] = tested on: Mycoplasma gallisepticum 34159; test: MIC, conventional broth-dilution microtiter test; assay type: cell-based; settings: Mycoplasmoides gallisepticum; broth-dilution microtiter; Mycoplasma gallisepticum 34159, Resistant strain; read-out: MIC
Procedure, shortened: as §4

[31] = tested on: Streptococcus sp. 80; test: MIC, conventional broth-dilution microtiter test; assay type: cell-based
Method: as §2

[32] = tested on: Staphylococcus aureus; test: MIC, conventional broth-dilution microtiter test; assay type: cell-based
Method: as §2

[33] = tested on: Pasteurella multocida 17E; test: MIC, conventional broth-dilution microtiter test; assay type: cell-based; settings: broth-dilution microtiter; Pasteurella multocida 17E, Bovine isolate; read-out: MIC
Procedure, shortened: as §4

[34] = C203, sc, mice, subcutaneous, mg/kg × 2, doses given 1 and 4 hours postinfection, read-out: ED50 Subcutaneous

Compound | ED50 ([1]; C203, po, read-out: ED50 Oral) | ED50 [1, 34] | MIC [3] | MIC [4] | Number of Deaths/Number Treated [6] | MIC [7] | MIC [8] | MIC [10] | MIC [11] | MIC [13] | MIC [14] | MIC [16] | MIC [17] | MIC [18] | MIC [20] | MIC [26] | MIC [27] | MIC [28] | MIC [29] | MIC [30] | also measured
CCC1CC(C)C(=O)C=CC(C)=CC(CN2CCC(O)CC2)C(CC)OC(=O)CC(O)C(C)C1OC1OC(C)C(O)C(N(C)C)C1O (centres unmarked) [Compound 45, 23-(4-Hydroxypiperidino)-20,23-dideoxy-20-dihydro-OMT] | > 100 mg/kg | > 10 mg/kg | 64 µg/mL (≈ 96 µM) | 2 µg/mL (≈ 3 µM) | 10/10 | 64 µg/mL (≈ 96 µM) | 128 µg/mL (≈ 192 µM) | 16 µg/mL (≈ 24 µM) | > 128 µg/mL | 8 µg/mL (≈ 12 µM) | > 128 µg/mL | > 128 µg/mL | 8 µg/mL (≈ 12 µM) | 8 µg/mL (≈ 12 µM) | 25 µg/mL (≈ 37.5 µM) | 25 µg/mL (≈ 37.5 µM) | 25 µg/mL (≈ 37.5 µM) | 50 µg/mL (≈ 75 µM) | > 50 µg/mL | > 50 µg/mL | MIC ([2]; agar-dilution, Staphylococcus aureus X400, Methicillin-resistant strain, read-out: MIC): 32 µg/mL (≈ 48 µM); MIC ([5]; agar-dilution, Haemophilus influenzae C.L., Ampicillin-sensitive strain, read-out: MIC): 32 µg/mL (≈ 48 µM); MIC ([9]; agar-dilution, Streptococcus pneumoniae Park I, read-out: MIC): 2 µg/mL (≈ 3 µM); MIC ([12]; agar-dilution, Streptococcus pyogenes C203, read-out: MIC): 32 µg/mL (≈ 48 µM); MIC ([15]; agar-dilution, Staphylococcus aureus V41, Penicillin-resistant strain, read-out: MIC): 16 µg/mL (≈ 24 µM); MIC [19]: 12.5 µg/mL (≈ 18.7 µM); MIC ([21]; broth-dilution microtiter, Mycoplasma gallisepticum, read-out: MIC): 6.25 µg/mL (≈ 9.37 µM); MIC ([22]; Pasteurella multocida, 68C): 12.5 µg/mL (≈ 18.7 µM); MIC ([23]; Pasteurella multocida, 22A): 12.5 µg/mL (≈ 18.7 µM); MIC ([24]; Pasteurella multocida, 40G): 12.5 µg/mL (≈ 18.7 µM); MIC ([25]; Pasteurella multocida, 60A): 12.5 µg/mL (≈ 18.7 µM); MIC ([31]; broth-dilution microtiter, Streptococcus sp. 80, read-out: MIC): 1.56 µg/mL (≈ 2.34 µM); MIC [32]: 12.5 µg/mL (≈ 18.7 µM); MIC [33]: 25 µg/mL (≈ 37.5 µM)
CCC1CC(C)C(=O)C=CC(C)=CC(COc2cccnc2)C(CC)OC(=O)CC(O)C(C)C1OC1OC(C)C(O)C(N(C)C)C1O (centres unmarked) [Compound 46, 23-O-(3-Pyridyl)-20-deoxy-20-dihydro-OMT] | > 100 mg/kg | > 10 mg/kg | 16 µg/mL (≈ 24.2 µM) | 0.25 µg/mL (≈ 0.378 µM) | 10/10 | 2 µg/mL (≈ 3.03 µM) | 4 µg/mL (≈ 6.05 µM) | 4 µg/mL (≈ 6.05 µM) | 128 µg/mL (≈ 194 µM) | 1 µg/mL (≈ 1.51 µM) | > 128 µg/mL | > 128 µg/mL | 1 µg/mL (≈ 1.51 µM) | 1 µg/mL (≈ 1.51 µM) | 50 µg/mL (≈ 75.7 µM) | 50 µg/mL (≈ 75.7 µM) | 25 µg/mL (≈ 37.8 µM) | 50 µg/mL (≈ 75.7 µM) | 25 µg/mL (≈ 37.8 µM) | 50 µg/mL (≈ 75.7 µM) | MIC ([2]; Staphylococcus aureus, X400): 2 µg/mL (≈ 3.03 µM); MIC ([5]; Haemophilus influenzae): 16 µg/mL (≈ 24.2 µM); MIC ([9]; Streptococcus pneumoniae): 0.5 µg/mL (≈ 0.757 µM); MIC ([12]; Streptococcus pyogenes, C203): 2 µg/mL (≈ 3.03 µM); MIC ([15]; Staphylococcus aureus, V41): 0.5 µg/mL (≈ 0.757 µM); MIC ([19]; broth-dilution microtiter, Mycoplasma synoviae, read-out: MIC): 6.25 µg/mL (≈ 9.46 µM); MIC [21]: 1.56 µg/mL (≈ 2.36 µM); MIC ([22]; broth-dilution microtiter, Pasteurella multocida 68C, read-out: MIC): 6.25 µg/mL (≈ 9.46 µM); MIC ([23]; broth-dilution microtiter, Pasteurella multocida 22A, read-out: MIC): 12.5 µg/mL (≈ 18.9 µM); MIC ([24]; broth-dilution microtiter, Pasteurella multocida 40G, read-out: MIC): 12.5 µg/mL (≈ 18.9 µM); MIC ([25]; broth-dilution microtiter, Pasteurella multocida 60A, Avian isolate, read-out: MIC): 12.5 µg/mL (≈ 18.9 µM); MIC ([31]; Streptococcus, SP.80): 3.12 µg/mL (≈ 4.72 µM); MIC [32]: 1.56 µg/mL (≈ 2.36 µM); MIC [33]: 12.5 µg/mL (≈ 18.9 µM)
